Laboratory results: patent publication US5082841A, “3-carbonyl-4-amino-8-substituted quinoline compounds useful in inhibiting gastric acid secretions” (SmithKline Beecham Intercredit B.V., priority 1989, dated 1992)

Target: T1, H+ K+ ATPase (lyophilised gastric vesicles) (Sus scrofa, UniProt P19156)
T1 construct: Lyophilised gastric vesicles were prepared from pig fundic mucosa; from tissue; host or cells: pig fundic mucosa (lyophilised gastric vesicles)
Assay: K+-stimulated ATPase activity in lyophilised gastric vesicles
Type: biochemical
Details: lyophilised gastric vesicles from pig fundic mucosa, 37° C., pH 7.0, 1 mM KCl, 30 minutes incubation
Method: The effects of a single high concentration (100 μM) of a compound of structure (I) on K-stimulated ATPase activity in lyophilised gastric vesicles was determined. Preferred compounds of structure (I) were also tested over a range of concentrations to determine IC50 values.
(i) Preparation of lyophilised gastric vesicles (H/K-ATPase)
Lyophilised gastric vesicles were prepared from pig fundic mucosa after the method of Keeling et. al. (Biochem. Pharmacol., 34, 2967, 1985).
(ii) K^+ -stimulated ATPase activity.
K^+ -stimulated ATPase activity was determined at 37° C. in the presence of the following : I0 mM Pipes/Tris buffer pH 7.0, 2 mM MgSO4, 1 mM KCl, 2 mM Na2 ATP and 3-6 μg protein/ml lyophilised gastric vesicles. After incubation for 30 minutes, the inorganic phosphate hydrolysed from ATP was determined by the method of Yoda and Hokin (Biochem. Biophys. Res. Commun. 40, 880, 1970).
Compounds of structure (I) were dissolved in dimethylsulphoxide which up to the highest concentration used had no effect on K+-stimulated ATPase activity.
The effect of the highest concentration of each compound of structure (I) on the recovery of a standard amount of inorganic phosphate wa also determined.

T1 sequence (P19156 2-1034 limits assumed): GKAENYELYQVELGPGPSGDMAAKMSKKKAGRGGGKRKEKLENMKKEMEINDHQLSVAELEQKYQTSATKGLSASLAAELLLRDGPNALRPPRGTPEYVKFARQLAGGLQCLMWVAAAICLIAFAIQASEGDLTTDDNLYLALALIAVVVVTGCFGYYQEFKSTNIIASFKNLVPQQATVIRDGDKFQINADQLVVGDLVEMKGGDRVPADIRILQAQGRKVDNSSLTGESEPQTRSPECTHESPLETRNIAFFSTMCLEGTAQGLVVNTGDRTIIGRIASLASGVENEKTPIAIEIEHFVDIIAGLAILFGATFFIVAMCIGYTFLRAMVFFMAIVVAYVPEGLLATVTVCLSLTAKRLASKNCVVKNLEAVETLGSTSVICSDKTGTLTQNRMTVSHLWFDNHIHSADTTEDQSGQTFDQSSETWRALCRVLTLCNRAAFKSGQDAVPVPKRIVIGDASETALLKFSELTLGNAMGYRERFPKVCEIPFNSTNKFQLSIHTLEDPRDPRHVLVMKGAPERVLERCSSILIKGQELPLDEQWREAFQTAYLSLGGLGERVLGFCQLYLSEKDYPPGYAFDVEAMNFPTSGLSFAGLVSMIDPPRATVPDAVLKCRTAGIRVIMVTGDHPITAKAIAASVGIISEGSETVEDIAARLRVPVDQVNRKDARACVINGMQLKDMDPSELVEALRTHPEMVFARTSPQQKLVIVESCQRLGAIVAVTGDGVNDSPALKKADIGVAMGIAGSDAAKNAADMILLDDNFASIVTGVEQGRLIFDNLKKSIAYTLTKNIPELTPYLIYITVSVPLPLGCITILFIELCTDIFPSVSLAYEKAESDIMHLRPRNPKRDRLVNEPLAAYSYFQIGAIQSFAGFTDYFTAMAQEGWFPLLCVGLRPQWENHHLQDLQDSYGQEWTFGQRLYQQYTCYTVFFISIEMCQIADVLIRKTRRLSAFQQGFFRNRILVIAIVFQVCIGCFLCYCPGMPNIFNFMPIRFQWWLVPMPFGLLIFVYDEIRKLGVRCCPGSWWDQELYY
T1 sequence (P18434 whole entry partner): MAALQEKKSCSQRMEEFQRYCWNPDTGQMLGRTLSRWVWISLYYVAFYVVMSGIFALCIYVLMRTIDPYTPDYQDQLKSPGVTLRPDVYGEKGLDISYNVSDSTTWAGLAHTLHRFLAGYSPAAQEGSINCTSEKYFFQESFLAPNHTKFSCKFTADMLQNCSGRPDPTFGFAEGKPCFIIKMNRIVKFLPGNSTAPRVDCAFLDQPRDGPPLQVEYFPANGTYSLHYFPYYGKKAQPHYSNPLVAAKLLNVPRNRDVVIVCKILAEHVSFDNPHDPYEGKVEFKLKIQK

IC50, 390 to 3520 nM:
CCCC(=O)c1cnc2c(OCCCN(C)C)cccc2c1Nc1ccccc1C [Example 1, 3-butyryl-4-(2-methylphenylamino)-8-(3-dimethylaminopropoxy)quinoline]
CCCC(=O)c1cnc2c(OCCCN(C)C)cccc2c1Nc1ccc(F)cc1C [Example 2, 3-butyryl-4-(4-fluoro-2-methylphenylamino)-8-(3-dimethylaminopropoxy)quinoline]
CCCC(=O)c1cnc2c(OCCN(C)C)cccc2c1Nc1ccccc1C [Example 3, 3-butyryl-4-(2-methylphenylamino)-8-(2-dimethylaminoethoxy)quinoline]
CCCC(=O)c1cnc2c(OCCCN3CCCC3)cccc2c1Nc1ccccc1C [Example 4, 3-butyryl-4-(2-methylphenylamino)-8-(3-(1-pyrrolidinyl)propoxy)quinoline]
CCCC(=O)c1cnc2c(OCCCN3CCCCC3)cccc2c1Nc1ccccc1C [Example 5, 3-butyryl-4-(2-methylphenylamino)-8-(3-piperidinopropoxy)quinoline]
CCCC(=O)c1cnc2c(OCCCN3CCOCC3)cccc2c1Nc1ccccc1C [Example 6, 3-butyryl-4-(2-methylphenylamino)-8-(3-morpholinopropoxy)quinoline]
CCCC(=O)c1cnc2c(C(O)CN3CCOCC3)cccc2c1Nc1ccccc1C (centres unmarked) [Example 7, 3-butyryl-4-(2-methylphenylamino)-8-(1-hydroxy-2-(1-morpholino)ethyl)quinoline]
CCCC(=O)c1cnc2c(C(O)CN(C)C)cccc2c1Nc1ccccc1C (centres unmarked) [Example 8, 3-butyryl-4-(2-methylphenylamino)-8-(1-hydroxy-2-dimethylaminoethyl)quinoline]
CCCC(=O)c1cnc2c(OCCCN(C)Cc3ccccc3)cccc2c1Nc1ccccc1C [Example 9, 3-butyryl-4-(2-methylphenylamino)-8-(3-(N-benzyl-N-methylamino)propoxy)quinoline]
CCCC(=O)c1cnc2c(OCCCN(C)CCCc3ccccc3)cccc2c1Nc1ccccc1C [Example 10, 3-butyryl-4-(2-methylphenylamino)-8-(3-(N-methyl-N-(3-phenylpropyl)amino)propoxy)quinoline]
CCCC(=O)c1cnc2c(NCCCN3CCOCC3)cccc2c1Nc1ccccc1C [Example 11, 3-butyryl-4-(2-methylphenylamino)-8-(3-morpholinopropylamino)quinoline]
